Experiment [1] addresses T1, BtGH84 (Bacteroides thetaiotaomicron, UniProt Q89ZI2).
T1 construct: gene BT_4395; recombinant purified enzyme
T1 sequence (Q89ZI2 22-737): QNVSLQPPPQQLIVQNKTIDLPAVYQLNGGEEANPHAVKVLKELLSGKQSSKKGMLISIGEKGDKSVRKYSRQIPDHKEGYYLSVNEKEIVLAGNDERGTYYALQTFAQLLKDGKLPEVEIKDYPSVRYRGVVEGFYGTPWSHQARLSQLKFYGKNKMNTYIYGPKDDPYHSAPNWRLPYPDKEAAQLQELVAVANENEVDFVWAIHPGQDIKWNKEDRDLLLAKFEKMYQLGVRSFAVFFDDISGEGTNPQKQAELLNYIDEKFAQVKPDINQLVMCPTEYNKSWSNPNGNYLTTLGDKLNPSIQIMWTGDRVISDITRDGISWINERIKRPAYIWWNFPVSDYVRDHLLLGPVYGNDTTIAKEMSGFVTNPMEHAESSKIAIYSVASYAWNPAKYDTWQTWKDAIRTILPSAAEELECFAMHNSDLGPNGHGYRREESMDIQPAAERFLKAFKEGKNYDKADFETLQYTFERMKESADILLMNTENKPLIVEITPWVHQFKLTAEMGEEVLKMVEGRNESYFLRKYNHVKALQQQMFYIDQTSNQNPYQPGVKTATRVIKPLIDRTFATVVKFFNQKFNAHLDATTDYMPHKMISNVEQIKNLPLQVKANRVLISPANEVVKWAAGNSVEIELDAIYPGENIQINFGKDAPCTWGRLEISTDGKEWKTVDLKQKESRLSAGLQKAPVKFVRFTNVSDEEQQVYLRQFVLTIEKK
The experiment can be described thus: binding constant; method not stated in main text. Particulars: read-out: BtGH84 / None. The text has this: (§1) binding constant; method not stated in main text on BtGH84

The target in experiment [2] is T2, BtGH84 (Bacteroides thetaiotaomicron, UniProt Q89ZI2, C441S/C675S/Y571C).
T2 construct: gene BT_4395; recombinant purified enzyme
T2 sequence (Q89ZI2 22-737 C441S/Y571C/C675S): T1 sequence (Q89ZI2 22-737)
The experiment can be described thus: binding constant; method not stated in main text. Conditions: read-out: BtGH84_TM / None.
Excerpt: as §1

Take `CCNC1=N[C@@H]2[C@@H](O)[C@H](O)[C@@H](CO)O[C@@H]2S1` [compound 2, thiamet-G]: the Kd stood at 0.05 µM in experiment [1] and 0.052 ± 0.0057 µM in experiment [2].

The values above are taken from publication PMC5674511, “Increase of enzyme activity through specific covalent modification with fragments” (Chemical Science, 2017).
